Assay results as given in PubChem BioAssay (NCI).
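Each compound was tested at five concentrations against cells in 96-well plates for 48 hours. At the GI50, growth is halved. TGI marks complete inhibition of growth.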

How the values were obtained:
Assay in all cases: NCI tumour cell line growth inhibition, 48 h
A498 renal = tested on: A498 renal
A549 NSCLC = tested on: A549 NSCLC
ACHN renal = tested on: ACHN renal
BT-549 breast = tested on: BT-549 breast
CAKI-1 renal = tested on: CAKI-1 renal
CCRF-CEM leukemia = tested on: CCRF-CEM leukemia
COLO 205 colon = tested on: COLO 205 colon
EKVX NSCLC = tested on: EKVX NSCLC
HCC-2998 colon = tested on: HCC-2998 colon
HCT-116 colon = tested on: HCT-116 colon
HCT-15 colon = tested on: HCT-15 colon
HL-60(TB) leukemia = tested on: HL-60(TB) leukemia
HOP-62 NSCLC = tested on: HOP-62 NSCLC
HOP-92 NSCLC = tested on: HOP-92 NSCLC
HS 578T breast = tested on: HS 578T breast
HT29 colon = tested on: HT29 colon
IGROV1 ovarian = tested on: IGROV1 ovarian
K-562 leukemia = tested on: K-562 leukemia
LOX IMVI melanoma = tested on: LOX IMVI melanoma
MALME-3M melanoma = tested on: MALME-3M melanoma
MCF7 breast = tested on: MCF7 breast
MDA-MB-435 = tested on: MDA-MB-435
NCI-H23 lung = tested on: NCI-H23 lung
NCI/ADR-RES ovarian = tested on: NCI/ADR-RES ovarian
OVCAR-4 ovarian = tested on: OVCAR-4 ovarian
OVCAR-5 ovarian = tested on: OVCAR-5 ovarian
OVCAR-8 ovarian = tested on: OVCAR-8 ovarian
PC-3 prostate = tested on: PC-3 prostate
RPMI-8226 leukemia = tested on: RPMI-8226 leukemia
SF-268 CNS = tested on: SF-268 CNS
SF-295 CNS = tested on: SF-295 CNS
SF-539 CNS = tested on: SF-539 CNS
SK-MEL-2 melanoma = tested on: SK-MEL-2 melanoma
SK-MEL-5 melanoma = tested on: SK-MEL-5 melanoma
SK-OV-3 ovarian = tested on: SK-OV-3 ovarian
SN12C renal = tested on: SN12C renal
SNB-19 CNS = tested on: SNB-19 CNS
SW-620 colon = tested on: SW-620 colon
TK-10 renal = tested on: TK-10 renal
UACC-257 melanoma = tested on: UACC-257 melanoma
UACC-62 melanoma = tested on: UACC-62 melanoma
UO-31 renal = tested on: UO-31 renal
786-0 renal = tested on: 786-0 renal
DU-145 prostate = tested on: DU-145 prostate
KM12 colon = tested on: KM12 colon
M14 melanoma = tested on: M14 melanoma
MDA-MB-231 breast = tested on: MDA-MB-231 breast
MOLT-4 leukemia = tested on: MOLT-4 leukemia
NCI-H226 lung = tested on: NCI-H226 lung
NCI-H460 lung = tested on: NCI-H460 lung
NCI-H522 lung = tested on: NCI-H522 lung
OVCAR-3 ovarian = tested on: OVCAR-3 ovarian
RXF 393 renal = tested on: RXF 393 renal
SNB-75 CNS = tested on: SNB-75 CNS
SR leukemia = tested on: SR leukemia
U251 CNS = tested on: U251 CNS

## N=c1c2ccccc2nc2oc3ccccc3n12
A498 renal
  TGI: > 100 µM
A549 NSCLC
  TGI: > 100 µM
ACHN renal
  TGI: > 100 µM
BT-549 breast
  TGI: > 100 µM
CAKI-1 renal
  TGI: > 100 µM
CCRF-CEM leukemia
  TGI: > 100 µM
COLO 205 colon
  TGI: > 100 µM
EKVX NSCLC
  TGI: 29.9 µM
HCC-2998 colon
  TGI: > 100 µM
HCT-116 colon
  TGI: > 100 µM
HCT-15 colon
  TGI: > 100 µM
HL-60(TB) leukemia
  TGI: > 100 µM
HOP-62 NSCLC
  TGI: 88.2 µM
HOP-92 NSCLC
  TGI: 80.6 µM
HS 578T breast
  TGI: 60.3 µM
HT29 colon
  TGI: > 100 µM
IGROV1 ovarian
  TGI: > 100 µM
K-562 leukemia
  TGI: > 100 µM
LOX IMVI melanoma
  TGI: > 100 µM
MALME-3M melanoma
  TGI: > 100 µM
MCF7 breast
  TGI: > 100 µM
MDA-MB-435
  TGI: > 100 µM
NCI-H23 lung
  TGI: > 100 µM
NCI/ADR-RES ovarian
  TGI: > 100 µM
OVCAR-4 ovarian
  TGI: 61.4 µM
OVCAR-5 ovarian
  TGI: > 100 µM
OVCAR-8 ovarian
  TGI: > 100 µM
PC-3 prostate
  TGI: > 100 µM
RPMI-8226 leukemia
  TGI: > 100 µM
SF-268 CNS
  TGI: 28 µM
SF-295 CNS
  TGI: > 100 µM
SF-539 CNS
  TGI: > 100 µM
SK-MEL-2 melanoma
  TGI: > 100 µM
SK-MEL-5 melanoma
  TGI: 69.5 µM
SK-OV-3 ovarian
  TGI: > 100 µM
SN12C renal
  TGI: > 100 µM
SNB-19 CNS
  TGI: > 100 µM
SW-620 colon
  TGI: > 100 µM
TK-10 renal
  TGI: 87.3 µM
UACC-257 melanoma
  TGI: > 100 µM
UACC-62 melanoma
  TGI: > 100 µM
UO-31 renal
  TGI: > 100 µM

## COC(=O)[C@@H](C)C[C@H](Cc1ccccc1)NC(=O)c1nc([C@@H](C[C@H](C(C)C)N(C)C(=O)[C@@H](NC(=O)[C@H]2CCCCN2C)C(C)C)OC(C)=O)sc1C(C)C
786-0 renal
  GI50: < 0.00333 µM
  TGI: 1.06 µM
A498 renal
  GI50: < 0.00333 µM
  TGI: 0.00776 µM
A549 NSCLC
  GI50: 0.0187 µM
  TGI: 15.7 µM
ACHN renal
  GI50: < 0.00333 µM
  TGI: 7.06 µM
BT-549 breast
  GI50: < 0.00333 µM
  TGI: 0.0837 µM
CAKI-1 renal
  GI50: 0.00483 µM
  TGI: 5.53 µM
CCRF-CEM leukemia
  GI50: 0.00793 µM
  TGI: > 33.3 µM
COLO 205 colon
  GI50: 0.00522 µM
  TGI: 0.0401 µM
DU-145 prostate
  GI50: < 0.00333 µM
  TGI: 0.434 µM
EKVX NSCLC
  GI50: 0.0135 µM
  TGI: > 33.3 µM
HCC-2998 colon
  GI50: < 0.00333 µM
  TGI: 1.44 µM
HCT-116 colon
  GI50: < 0.00333 µM
  TGI: 0.476 µM
HCT-15 colon
  GI50: 0.0335 µM
  TGI: 4.43 µM
HL-60(TB) leukemia
  GI50: < 0.00333 µM
  TGI: < 0.00333 µM
HOP-62 NSCLC
  GI50: 0.0129 µM
  TGI: 10.4 µM
HOP-92 NSCLC
  GI50: 0.219 µM
  TGI: > 21.6 µM
HS 578T breast
  GI50: 0.00503 µM
  TGI: 1.34 µM
HT29 colon
  GI50: < 0.00333 µM
  TGI: 0.583 µM
IGROV1 ovarian
  GI50: < 0.00333 µM
  TGI: > 11.9 µM
K-562 leukemia
  GI50: < 0.00333 µM
  TGI: 5.43 µM
KM12 colon
  GI50: < 0.00333 µM
  TGI: 4.2 µM
LOX IMVI melanoma
  GI50: 0.00791 µM
  TGI: 3.93 µM
M14 melanoma
  GI50: 0.00338 µM
  TGI: 0.0127 µM
MALME-3M melanoma
  GI50: 0.0424 µM
  TGI: 5.81 µM
MCF7 breast
  GI50: < 0.00333 µM
  TGI: > 25.6 µM
MDA-MB-231 breast
  GI50: 0.00902 µM
  TGI: 2.2 µM
MOLT-4 leukemia
  GI50: 0.0139 µM
  TGI: 14.5 µM
NCI-H226 lung
  GI50: 0.0122 µM
  TGI: 1.37 µM
NCI-H23 lung
  GI50: 0.00965 µM
  TGI: 16.1 µM
NCI-H460 lung
  GI50: 0.0045 µM
  TGI: 3.52 µM
NCI-H522 lung
  GI50: < 0.00333 µM
  TGI: 0.055 µM
NCI/ADR-RES ovarian
  GI50: 0.216 µM
  TGI: > 7.8 µM
OVCAR-3 ovarian
  GI50: < 0.00333 µM
  TGI: 0.0703 µM
OVCAR-4 ovarian
  GI50: 0.0103 µM
  TGI: > 33.3 µM
OVCAR-5 ovarian
  GI50: 0.0136 µM
  TGI: 16 µM
OVCAR-8 ovarian
  GI50: 0.00792 µM
  TGI: 8.62 µM
PC-3 prostate
  GI50: < 0.00333 µM
  TGI: > 33.3 µM
RPMI-8226 leukemia
  GI50: < 0.00333 µM
  TGI: 6.96 µM
RXF 393 renal
  GI50: < 0.00333 µM
  TGI: 7.78 µM
SF-268 CNS
  GI50: 0.0184 µM
  TGI: 7.72 µM
SF-295 CNS
  GI50: < 0.00333 µM
  TGI: 0.276 µM
SF-539 CNS
  GI50: 0.007 µM
  TGI: 0.0242 µM
SK-MEL-2 melanoma
  GI50: 0.00503 µM
  TGI: 5.73 µM
SK-MEL-5 melanoma
  GI50: < 0.00333 µM
  TGI: 0.0449 µM
SK-OV-3 ovarian
  GI50: < 0.00333 µM
  TGI: 33.1 µM
SN12C renal
  GI50: 0.00765 µM
  TGI: 4.51 µM
SNB-19 CNS
  GI50: < 0.00333 µM
  TGI: > 33.3 µM
SNB-75 CNS
  GI50: 0.00388 µM
  TGI: 9.38 µM
SR leukemia
  GI50: < 0.00333 µM
  TGI: > 15 µM
SW-620 colon
  GI50: < 0.00333 µM
  TGI: > 25.7 µM
TK-10 renal
  GI50: 0.117 µM
  TGI: 14.4 µM
U251 CNS
  GI50: 0.012 µM
  TGI: 8.51 µM
UACC-62 melanoma
  GI50: < 0.00333 µM
  TGI: 32.6 µM
UO-31 renal
  GI50: 0.0154 µM
  TGI: 5.37 µM
